# Laboratory results as given in US9695155B2, “Herbicidal substituted pyrimidinyloxy benzene compounds” (E. I. DU PONT DE NEMOURS AND COMPANY, priority 2013, dated 2017).
# Key:
# barnyardgrass [1] = test: Test A preemergence; assay type: in vivo, Echinochloa crus-galli
# Outline: (§1)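 Scoring: eye-based comparison with untreated controls, 0 for no effect through 100 for complete control, at about day 10. Treatments: directed soil spray preemergence; foliar spray postemergence on 2–10 cm plants at the one- to two-leaf stage. Medium: loam soil with sand.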
# large (Lg) crabgrass [2] = test: Test A preemergence; assay type: in vivo, Digitaria sanguinalis
# Outline: as §1
# giant foxtail [3] = test: Test A preemergence; assay type: in vivo, Setaria faberii
# Outline: as §1
# morningglory [4] = test: Test A preemergence; assay type: in vivo, Ipomoea spp.
# Outline: as §1
# pigweed [5] = test: Test A preemergence; assay type: in vivo, Amaranthus retroflexus
# Outline: as §1
# velvetleaf [6] = test: Test A preemergence; assay type: in vivo, Abutilon theophrasti
# Outline: as §1
# wheat [7] = test: Test A preemergence; assay type: in vivo, Triticum aestivum
# Outline: as §1
# corn [8] = test: Test A preemergence; assay type: in vivo, Zea mays
# Outline: as §1
# barnyardgrass [9] = test: Test A postemergence; assay type: in vivo, Echinochloa crus-galli; conditions: 0 to 100 scale where 0 is no effect and 100 is complete control
# Outline: as §1
# large (Lg) crabgrass [10] = test: Test A postemergence; assay type: in vivo, Digitaria sanguinalis; conditions: 0 to 100 scale where 0 is no effect and 100 is complete control
# Outline: as §1
# giant foxtail [11] = test: Test A postemergence; assay type: in vivo, Setaria faberii; conditions: 0 to 100 scale where 0 is no effect and 100 is complete control
# Outline: as §1
# morningglory [12] = test: Test A postemergence; assay type: in vivo, Ipomoea spp.; conditions: 0 to 100 scale where 0 is no effect and 100 is complete control
# Outline: as §1
# pigweed [13] = test: Test A postemergence; assay type: in vivo, Amaranthus retroflexus; conditions: 0 to 100 scale where 0 is no effect and 100 is complete control
# Outline: as §1
# velvetleaf [14] = test: Test A postemergence; assay type: in vivo, Abutilon theophrasti; conditions: 0 to 100 scale where 0 is no effect and 100 is complete control
# Outline: as §1
# wheat [15] = test: Test A postemergence; assay type: in vivo, Triticum aestivum; conditions: 0 to 100 scale where 0 is no effect and 100 is complete control
# Outline: as §1
# corn [16] = test: Test A postemergence; assay type: in vivo, Zea mays; conditions: 0 to 100 scale where 0 is no effect and 100 is complete control
# Outline: as §1
# rice [17] = test: Test B flooded paddy test; assay type: in vivo, Oryza sativa; conditions: Flood, 250 g ai/ha; 0 to 100 scale where 0 is no effect and 100 is complete control
# Outline: (§2)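 Plants at 2-leaf stage; pots flooded to 3 cm above soil and compound applied directly into paddy water, depth held throughout. After 13 to 15 days in greenhouse, visual rating versus controls on 0 (no effect) to 100 (complete control) scale.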
# sedge, umbrella [18] = test: Test B flooded paddy test; assay type: in vivo, Cyperus difformis; conditions: Flood, 250 g ai/ha; 0 to 100 scale where 0 is no effect and 100 is complete control
# Outline: as §2
# Heteranthera limosa = test: Test B flooded paddy test; assay type: in vivo; conditions: Flood, 250 g ai/ha; 0 to 100 scale where 0 is no effect and 100 is complete control
# Outline: as §2
# barnyardgrass [19] = test: Test B flooded paddy test; assay type: in vivo, Echinochloa crus-galli; conditions: Flood, 250 g ai/ha; 0 to 100 scale where 0 is no effect and 100 is complete control
# Outline: as §2
# rice [20] = test: Test C flooded paddy test; assay type: in vivo, Oryza sativa; conditions: Flood, scale 0 to 100 (0 no effect, 100 complete control), 13 to 15 days
# Outline: (§3)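 Pots were flooded to 3 cm above the soil surface at treatment, compound applied directly to the paddy water, and that depth held throughout. Plants were kept in a greenhouse for 13 to 15 days, then visually rated against untreated controls.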
# sedge, umbrella [21] = test: Test C flooded paddy test; assay type: in vivo, Cyperus difformis; conditions: Flood, scale 0 to 100 (0 no effect, 100 complete control), 13 to 15 days
# Outline: as §3
# ducksalad = test: Test C flooded paddy test; assay type: in vivo, Heteranthera limosa; conditions: Flood, scale 0 to 100 (0 no effect, 100 complete control), 13 to 15 days
# Text: (§4) At time of treatment, test pots were flooded to 3 cm above the soil surface, treated by application of test compounds directly to the paddy water, and then maintained at that water depth for the duration of the test. Treated plants and controls were maintained in a greenhouse for 13 to 15 days, after which time all species were compared to controls and visually evaluated. […] A dash (-) response means no test result.
# barnyardgrass [22] = test: Test C flooded paddy test; assay type: in vivo, Echinochloa crus-galli; conditions: Flood, scale 0 to 100 (0 no effect, 100 complete control), 13 to 15 days
# Text: as §4
# [23] = 500 g ai/ha, 0 to 100 scale where 0 is no effect and 100 is complete control
structure (smiles),measurement,setting,value
FC(F)c1cccc(Oc2ncc(Cl)cn2)c1-n1cc(I)cn1 [Compound 184],"Barnyardgrass plant response rating (0 to 100 scale, 0 is no effect, 100 is complete control)",barnyardgrass [1]; 125 g ai/ha,30
same,Barnyardgrass plant response rating,barnyardgrass [1]; [23],100
same,"Crabgrass, Large plant response rating (0 to 100 scale)",large (Lg) crabgrass [2]; 125 g ai/ha,100
same,"Crabgrass, Large plant response rating",large (Lg) crabgrass [2]; [23],100
same,"Foxtail, Giant plant response rating (0 to 100 scale)",giant foxtail [3]; 125 g ai/ha,100
same,"Foxtail, Giant plant response rating",giant foxtail [3]; [23],100
same,Morningglory plant response rating (0 to 100 scale),morningglory [4]; 125 g ai/ha,0
same,Morningglory plant response rating,morningglory [4]; [23],90
same,Pigweed plant response rating (0 to 100 scale),pigweed [5]; 125 g ai/ha,100
same,Pigweed plant response rating,pigweed [5]; [23],100
same,Velvetleaf plant response rating (0 to 100 scale),velvetleaf [6]; 125 g ai/ha,20
same,Velvetleaf plant response rating,velvetleaf [6]; [23],60
same,Wheat plant response rating (0 to 100 scale),wheat [7]; 125 g ai/ha,0
same,Wheat plant response rating,wheat [7]; [23],30
same,Corn plant response rating (0 to 100 scale),corn [8]; 125 g ai/ha,20
same,Corn plant response rating,corn [8]; [23],20
same,Barnyardgrass plant response rating,barnyardgrass [9]; 125 g ai/ha,60
same,"Plant response rating, Barnyardgrass",barnyardgrass [9]; 500 g ai/ha,90
same,"Crabgrass, Large plant response rating",large (Lg) crabgrass [10]; 125 g ai/ha,70
same,"Plant response rating, Crabgrass, Large",large (Lg) crabgrass [10]; 500 g ai/ha,80
same,"Foxtail, Giant plant response rating",giant foxtail [11]; 125 g ai/ha,70
same,"Plant response rating, Foxtail, Giant",giant foxtail [11]; 500 g ai/ha,80
same,Morningglory plant response rating,morningglory [12]; 125 g ai/ha,60
same,"Plant response rating, Morningglory",morningglory [12]; 500 g ai/ha,90
same,Pigweed plant response rating,pigweed [13]; 125 g ai/ha,100
same,"Plant response rating, Pigweed",pigweed [13]; 500 g ai/ha,100
same,Velvetleaf plant response rating,velvetleaf [14]; 125 g ai/ha,80
same,"Plant response rating, Velvetleaf",velvetleaf [14]; 500 g ai/ha,90
same,Wheat plant response rating,wheat [15]; 125 g ai/ha,30
same,"Plant response rating, Wheat",wheat [15]; 500 g ai/ha,90
same,Corn plant response rating,corn [16]; 125 g ai/ha,20
same,"Plant response rating, Corn",corn [16]; 500 g ai/ha,70
same,"Plant response rating, Rice",rice [17],10
same,"Plant response rating, Sedge, Umbrella","sedge, umbrella [18]",95
same,"Plant response rating, Ducksalad",Heteranthera limosa,100
same,"Plant response rating, Barnyardgrass",barnyardgrass [19],0
same,"Plant response rating, Rice",rice [20]; 31 g ai/ha,0
same,"Plant response rating, Rice",rice [20]; 62 g ai/ha,0
same,"Plant response rating, Rice",rice [20]; 125 g ai/ha,0
same,"Plant response rating, Rice",rice [20]; 250 g ai/ha,0
same,"Plant response rating, Sedge, Umbrella","sedge, umbrella [21]; 31 g ai/ha",0
same,"Plant response rating, Sedge, Umbrella","sedge, umbrella [21]; 62 g ai/ha",0
same,"Plant response rating, Sedge, Umbrella","sedge, umbrella [21]; 125 g ai/ha",50
same,"Plant response rating, Sedge, Umbrella","sedge, umbrella [21]; 250 g ai/ha",75
same,"Plant response rating, Ducksalad",ducksalad; 31 g ai/ha,0
same,"Plant response rating, Ducksalad",ducksalad; 62 g ai/ha,30
same,"Plant response rating, Ducksalad",ducksalad; 125 g ai/ha,30
same,"Plant response rating, Ducksalad",ducksalad; 250 g ai/ha,75
same,"Plant response rating, Barnyardgrass",barnyardgrass [22]; 31 g ai/ha,0
same,"Plant response rating, Barnyardgrass",barnyardgrass [22]; 62 g ai/ha,0
same,"Plant response rating, Barnyardgrass",barnyardgrass [22]; 125 g ai/ha,0
same,"Plant response rating, Barnyardgrass",barnyardgrass [22]; 250 g ai/ha,0
